# Measured values published in patent US20120142645A1, “NEUROACTIVE STEROID COMPOSITIONS AND METHODS OF USE FOR LOWERING CHOLESTEROL” (priority 2009, published 2012).
# “Also recorded” adds a separate entry of the source.
# Columns and labels:
# [1] = Serum neurosteroid and steroid levels (GC/MS, RIA) at baseline and post-treatment; same trial; details: for Serum Androstenedione level / Serum Cortisol level / Serum DHEA level / Serum DHEAS level / Serum PGS (pregnenolone sulfate) level / Serum Total testosterone level / Serum Estradiol level / Serum ALLO (allopregnanolone) level / Serum Free testosterone level / Serum PG (pregnenolone) level / Serum Progesterone level: mean ± SD; for Serum Estradiol level: n = 7; for Serum ALLO (allopregnanolone) level / Serum Free testosterone level / Serum PG (pregnenolone) level / Serum Progesterone level: n = 8; for Serum testosterone, free testosterone, cortisol, DHEA, estradiol, or androstenedione levels: after 8 weeks of pregnenolone vs baseline
# Protocol: Study drug was dispensed every 2 weeks at each study visit at fixed escalating doses as follows: Visit 1: Two-week single-blind placebo lead-in phase, one placebo tablet twice each day (all pts), Visit 2: Randomization to PREG 50 mg twice each day (100 mg/day total) or placebo for 2 wks, Visit 3: PREG 150 mg twice each day (300 mg/day total) or placebo for 2 weeks, Visit 4: PREG 250 mg twice each day (500 mg/day total) or placebo for 2 weeks, Visit 5: PREG 250 mg twice each day (500 mg/day total) or placebo continued for 2 weeks. Patients thus received PREG 500 mg per day in divided doses during the last 4 weeks of the study. Patients also received the Hillside Adverse Events Scale at Visits 2-6, and during staggered telephone check-in calls every two weeks, beginning one week into the single-blind placebo lead-in phase.
# Neurosteroid Analyses. […] One mL of serum was extracted three times in ethyl acetate prior to high performance liquid chromatography (HPLC) purification utilizing tetrahydrofuran, ethanol, and hexane in the mobile phase. All samples were injected in duplicate. […] All other serum steroid levels were determined utilizing commercially available radioimmunoassay (RIA) kits according to manufacturer directions (progesterone, cortisol, testosterone, free testosterone, and DHEAS: Diagnostic System Laboratories, Webster, Tex.). DHEA serum levels were determined utilizing a kit from ICN Pharmaceuticals (Costa Mesa, Calif.).
# Statistical Analysis. Primary endpoints were changes from baseline at Visit 2 following a two-week placebo lead-in period (all patients) to final assessment at Visit 6 in cognitive symptoms (as assessed by BAGS and MATRICS composite scores) and negative symptoms (as assessed by SANS total scores). […] Student's t-tests were conducted on the change scores between treatment groups in this proof-of-concept study (two-tailed alpha p=0.05 for each statistical test).
# [2] = test system: patients with schizophrenia or schizoaffective disorder; experiment: Serum analytes and EKG QTc interval at screening and final visit; same trial; assay type: in vivo, human; details: for Serum LDL levels post-treatment compared to baseline: paired t-test p=0.002; for EKG QTc interval / Serum Cholesterol / Serum Glucose / Serum Prolactin / Serum TSH / Serum Triglycerides / Serum LDL / Serum HDL: mean ± SD; for Serum LDL: n = 7; for Serum HDL: n = 8
# From the text: During the screening visit (Visit 1), patients received a physical exam, vital signs, and electrocardiogram (EKG), as well as baseline laboratory measures consisting of serum electrolytes, glucose, creatinine, blood urea nitrogen (chemistry 7 panel), liver function tests, complete blood count (CBC), urinalysis, urine toxicology test, thyroid stimulating hormone (TSH), and prolactin, and serum pregnancy test if female. These tests were also repeated at the completion of the study (Visit 6). In addition, patients received an interim EKG 4 weeks post-randomization, as well as a serum pregnancy test if female (Visit 4). Patients also received a chemistry 7 panel, CBC, and liver function tests at Visits 2, 3, 4, and 5 (i.e., at all study visits). Psychiatric symptoms were assessed at baseline using the Scale for the Assessment of Negative Symptoms (Andreasen, 1983), the Positive and Negative Symptom Scale (PANSS; Kay et al., 1987), the Calgary Depression Rating Scale (CDRS; Addington et al., 1990), the Clinical Global Impressions Improvement (CGI-I) and Severity (CGI-S) scales, the Barnes Akathisia Scale (BAS; Barnes, 1989), the Simpson Angus Scale for Extrapyramidal Symptoms (SAS; Simpson & Angus, 1970), the Quality of Life Scale (QOL; Heinrichs et al., 1984), and the Hillside Side Effects Scale. One research nurse with five years of experience in the conduction of schizophrenia clinical trials completed both psychiatric and cognitive assessments throughout the study, and was trained to one point of divergence on each PANSS item.
# [3] = after 8 weeks of pregnenolone, listed as Pregnenolone
# [4] = after 8 weeks of pregnenolone, listed as pregnenolone
smiles,measurement,setting,value
"CC(=O)[C@H]1CC[C@H]2[C@@H]3CC=C4C[C@@H](O)CC[C@]4(C)[C@H]3CC[C@]12C [PG, pregnenolone]",Serum Androstenedione level,[1]; Week 0 (baseline),2.93 ± 1.30 ng/mL
same,Serum Cortisol level,[1]; Week 0 (baseline),8.08 ± 2.80 μg/100 ml
same,Serum DHEA level,[1]; Week 0 (baseline),7.85 ± 5.94 ng/mL
same,Serum DHEAS level,[1]; Week 0 (baseline),124.72 ± 86.52 μg/100 ml
same,Serum PGS (pregnenolone sulfate) level,[1]; Week 0 (baseline),33.4 ± 18.3 ng/mL
same,Serum Total testosterone level,[1]; Week 0 (baseline),302.83 ± 158.53 ng/100 ml
same,Serum Estradiol level,[1]; Week 0 (baseline),24.64 ± 6.21 pg/mL
same,Serum ALLO (allopregnanolone) level,[1]; Week 0 (baseline),110.7 ± 78.9 pg/mL
same,Serum Free testosterone level,[1]; Week 0 (baseline),7.96 ± 1.07 pg/mL
same,Serum PG (pregnenolone) level,[1]; Week 0 (baseline),499.9 ± 313.6 pg/mL
same,Serum Progesterone level,[1]; Week 0 (baseline),0.38 ± 0.15 ng/mL
same,Serum Androstenedione level,[1]; Week 8,3.01 ± 4.66 ng/mL
same,Serum Cortisol level,[1]; Week 8,7.96 ± 3.85 μg/100 ml
same,Serum DHEA level,[1]; Week 8,6.33 ± 3.26 ng/mL
same,Serum DHEAS level,[1]; Week 8,144.87 ± 97.30 μg/100 ml
same,Serum PGS (pregnenolone sulfate) level,[1]; Week 8,94.4 ± 14.3 ng/mL
same,Serum Total testosterone level,[1]; Week 8,303.08 ± 156.05 ng/100 ml
same,Serum Estradiol level,[1]; Week 8,25.42 ± 4.73 pg/mL
same,Serum ALLO (allopregnanolone) level,[1]; Week 8,823.1 ± 528.9 pg/mL
same,Serum Free testosterone level,[1]; Week 8,7.31 ± 2.04 pg/mL
same,Serum PG (pregnenolone) level,[1]; Week 8,2096.0 ± 999.4 pg/mL
same,Serum Progesterone level,"[1]; Week 8, listed as Pregnenolone",2.17 ± 0.64 ng/mL
same,Serum Progesterone level,"[1]; Week 8, listed as pregnenolone",2.17 ng/mL
same,Increase in serum DHEAS levels over baseline,[1]; after 8 weeks of pregnenolone,approximately 16%
same,Increase in serum PGS levels over baseline,[1]; after 8 weeks of pregnenolone,tripled
same,Increase in serum progesterone over baseline,[1]; after 8 weeks of pregnenolone,over four-fold
same,"Serum testosterone, free testosterone, cortisol, DHEA, estradiol, or androstenedione levels",[1]; listed as Pregnenolone,did not result in downstream elevations
same,"Serum testosterone, free testosterone, cortisol, DHEA, estradiol, or androstenedione levels",[1]; listed as pregnenolone,did not increase
same,Elevation in serum levels of PG over baseline,[1]; [3],approximately four-fold elevations
same,Increase in serum ALLO over baseline,[1]; [3],five-fold elevations
same,Elevation in serum levels of PG over baseline,[1]; [4],approximate four-fold increase
same,Increase in serum ALLO over baseline,[1]; [4],five-fold
same,EKG QTc interval following treatment,[2]; 8 weeks of pregnenolone,no change
same,"Laboratory parameters including glucose, triglycerides, HDL, TSH, and prolactin, post-treatment compared to baseline",[2]; 8 weeks of pregnenolone,no significant changes
same,Serum LDL levels post-treatment compared to baseline,"[2]; 8 weeks of pregnenolone, listed as Pregnenolone",significantly decreased
same,Serum LDL levels post-treatment compared to baseline,"[2]; 8 weeks of pregnenolone, listed as pregnenolone",significantly reduced; also recorded: significantly decreased
same,Cholesterol levels following treatment compared to baseline,"[2]; 8 weeks of pregnenolone, paired t-test p=0.008",significantly decreased
same,EKG QTc interval,[2]; Screening,414.8 ± 19.2 ms
same,Serum Cholesterol,[2]; Screening,185.8 ± 43.3 mg/100 ml
same,Serum Glucose,[2]; Screening,117.9 ± 36.2 mg/100 ml
same,Serum Prolactin,[2]; Screening,7.69 ± 5.91 ng/mL
same,Serum TSH,[2]; Screening,1.45 ± 0.64 μIU/ml
same,Serum Triglycerides,[2]; Screening,194.3 ± 87.8 mg/100 ml
same,Serum LDL,[2]; Screening,119.1 ± 26.0 mg/100 ml
same,Serum HDL,[2]; Screening,39.3 ± 16.5 mg/100 ml
same,EKG QTc interval,[2]; Week 8,406.8 ± 20.9 ms
same,Serum Glucose,[2]; Week 8,119.0 ± 33.5 mg/100 ml
same,Serum Prolactin,[2]; Week 8,7.85 ± 6.47 ng/mL
same,Serum TSH,[2]; Week 8,1.26 ± 0.72 μIU/ml
same,Serum Triglycerides,[2]; Week 8,237.6 ± 119.5 mg/100 ml
same,Serum LDL,"[2]; Week 8, p 0.002 vs screening",90.9 ± 29.4 mg/100 ml
same,Serum HDL,[2]; Week 8,37.0 ± 17.4 mg/100 ml
same,Serum Cholesterol,"[2]; Week 8, p 0.008 vs screening",166.6 ± 36.2 mg/100 ml
same,"Glucose levels, serum electrolyte panels, thyroid stimulating hormone, prolactin levels, and liver function tests",[2]; during the 8-week trial,unchanged
